Experiment [1] has as its target T1, Type II 5α-Reductase from Human Prostate (Homo sapiens, UniProt P31213).
T1 construct: The same procedure as above was used for preparations using tissue from prostate surgery; from tissue; host or cells: human prostate tissue from surgery, homogenate, 100,000×g pellet
T1 sequence (P31213 1-254): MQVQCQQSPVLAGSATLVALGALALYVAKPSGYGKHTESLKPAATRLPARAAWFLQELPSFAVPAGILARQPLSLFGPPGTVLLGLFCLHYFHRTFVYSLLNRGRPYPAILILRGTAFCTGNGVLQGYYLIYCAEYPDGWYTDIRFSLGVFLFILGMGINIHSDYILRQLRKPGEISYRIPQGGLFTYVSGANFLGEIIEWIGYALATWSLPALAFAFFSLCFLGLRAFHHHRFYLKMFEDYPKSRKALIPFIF
Put plainly: Human Type II 5α-reductase assay (conversion of [3H]-testosterone to 5α-reduced metabolites). Type of experiment: biochemical. The settings on record: sodium acetate pH 5.5, 25°, 30 min, compared to control reaction mixtures; for inhibition at 0.3 µM: pH 5.5, 0.3 μM, read-out: percent inhibition of Type II AR; for percent inhibition of Type II AR: 0.3 μM.

Experiment [2] deals with T2, Type I 5α-Reductase from Human Scalp (Homo sapiens, UniProt P18405).
T2 construct: Scalp punch biopsies from graft recipient sites were obtained from human hair transplant procedures; from tissue; host or cells: human scalp punch biopsies (hair transplant graft recipient sites), homogenate, 100,000×g pellet
T2 sequence (P18405 1-259): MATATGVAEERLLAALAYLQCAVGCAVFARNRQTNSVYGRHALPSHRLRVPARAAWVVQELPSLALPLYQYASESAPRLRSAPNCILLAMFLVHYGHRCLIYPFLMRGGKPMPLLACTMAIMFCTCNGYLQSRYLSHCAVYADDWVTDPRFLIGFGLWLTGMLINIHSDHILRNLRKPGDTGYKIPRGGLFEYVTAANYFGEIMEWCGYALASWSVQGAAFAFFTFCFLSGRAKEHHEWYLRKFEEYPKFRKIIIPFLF
Nature of the experiment: Human Type I 5α-reductase assay (conversion of [3H]-testosterone to 5α-reduced metabolites). Type of experiment: biochemical. The settings on record: pH 7.5, 0.3 μM; 50 nM [3H]-testosterone, pH 7.5, 25°, 180 min; compared to control reaction mixtures; read-out: percent inhibition of Type I AR.

SMILES strings stand for the structures.

As a reminder, the inhibition is the drop in the measured response relative to a control, in per cent.

As for `CN1C(=O)CC[C@]2(C)c3ccc(-c4cccc([N+](=O)[O-])c4)cc3CC[C@@H]12` [Example 86, (+)-(4aR)-(10bR)-4-methyl-8-(3-nitrophenyl)-10b-methyl-1,2,3,4,4a,5,6,10b-octahydrobenzo[f]quinolin-3-one], the inhibition at 0.3 µM in experiment [1] was determined as 51%; in experiment [2], 66%.

Consider `CN1C(=O)CC[C@]2(C)c3ccc(-c4cc(C(F)(F)F)cc(C(F)(F)F)c4)cc3CC[C@@H]12` [Example 87, (+)-(4aR)-(10bR)-4-methyl-8-(3,5-his [trifluoromethyl]phenyl)-10b-methyl-1,2,3,4,4a,5,6,10b-octahydrobenzo[f]quinolin-3-one], for which the inhibition at 0.3 µM is 28% in experiment [1] and 83% in experiment [2].

`CN1C(=O)CC[C@]2(C)c3ccc(-c4ccc(F)c(Cl)c4)cc3CC[C@@H]12` [Example 88, (+)-(4aR)-(10bR)-4-methyl-8-(3-chloro-4-fluorophenyl)-10b-methyl-1,2,3,4,4a,5,6,10b-octahydrobenzo[f]quinolin-3-one]: the inhibition at 0.3 µM in experiment [1] came out at 43%; in experiment [2], 96%.

`CN(C)c1cccc2c(S(=O)(=O)Nc3cccc(-c4ccc5c(c4)CC[C@H]4N(C)C(=O)CC[C@]54C)c3)cccc12` [Example 91, (+)-(4aR)-(10bR)-4-methyl-8-[3-([5-dimethylamino-1-naphthyl]sulfonylamino)phenyl]-10b-methyl-1,2,3,4,4a,5,6,10b-octahydrobenzo[f]quinolin-3-one]: the inhibition at 0.3 µM in experiment [1] worked out at 32%; in experiment [2] it was 87%.

Take `CN1C(=O)CC[C@]2(C)c3ccc(Sc4ccc(Cl)cc4)cc3CC[C@@H]12` [Example 95, (+)-(4aR)-(10bR)-4,10b-dimethyl-8-(4-chlorophenylthio)-1,2,3,4,-4a,5,6,10b-octahydrobenzo[f]quinolin-3-one]: the figures for the inhibition at 0.3 µM in experiment [1] and in experiment [2] were 35% and 95%, respectively.

Consider `Cc1ccc(Sc2ccc3c(c2)CC[C@H]2N(C)C(=O)CC[C@]32C)cc1` [Example 96, (+)-(4aR)-(10bR)-4,10b-dimethyl-8-(4-methylphenylthio)-1,2,3,4,4a,5,6,10b-octahydrobenzo[f]quinolin-3-one], for which the results for the inhibition at 0.3 µM in experiment [1] and in experiment [2] were 52% and 89%, respectively.

As for `CN1C(=O)CC[C@]2(C)c3ccc(Sc4ccc5ccccc5c4)cc3CC[C@@H]12` [Example 98, (+)-(4aR)-(10bR)-4,10b-dimethyl-8-(2-naphthylthio)-1,2,3,4,-4a,5,6,10b-octahydrobenzo[f]quinolin-3-one], in experiment [1], the “percent inhibition of Type II AR” value stood at 44% and the inhibition at 0.3 µM came out at 61%. Besides, the inhibition at 0.3 µM in experiment [2] stood at 76%.

For `CN1C(=O)CC[C@]2(C)c3ccc(Sc4cccc(Cl)c4)cc3CC[C@@H]12` [Example 100, (+)-(4aR)-(10bR)-4,10b-dimethyl-8-(3-chlorophenylthio)-1,2,3,4,-4a,5,6,10b-octahydrobenzo[f]quinolin-3-one], in experiment [1], the “percent inhibition of Type II AR” value is 34%. In addition, the inhibition at 0.3 µM turned out to be 51% in experiment [1] and 96% in experiment [2].

Turning to `Cc1ccccc1Sc1ccc2c(c1)CC[C@H]1N(C)C(=O)CC[C@]21C` [Example 101, (+)-(4aR)-(10bR)-4,10b-dimethyl-8-(2-methylphenylthio)-1,2,3,4,-4a,5,6,10b-octahydrobenzo[f]quinolin-3-one], the inhibition at 0.3 µM turned out to be 43% in experiment [1] and 75% in experiment [2].

Consider `Cc1cccc(Sc2ccc3c(c2)CC[C@H]2N(C)C(=O)CC[C@]32C)c1` [Example 102, (+)-(4aR)-(10bR)-4,10b-dimethyl-8-(3-methylphenylthio)-1,2,3,4,-4a,5,6,10b-octahydrobenzo[f]quinolin-3-one], for which the inhibition at 0.3 µM in experiment [1] is 61%; in experiment [2], 92%.

In the case of `CN1C(=O)CC[C@]2(C)c3ccc(Sc4cccc5ccccc45)cc3CC[C@@H]12` [Example 103, (+)-(4aR)-(10bR)-4,10b-dimethyl-8-(1-naphthylthio)-1,2,3,4, -4a,5,6,10b-octahydrobenzo[f]quinolin-3-one], the inhibition at 0.3 µM was determined as 58% in experiment [1] and 81% in experiment [2].

On to `COc1ccccc1Sc1ccc2c(c1)CC[C@H]1N(C)C(=O)CC[C@]21C` [Example 104, (+)-(4aR)-(10bR)-4,10b-dimethyl-8-(2-methoxyphenylthio)-1,2,3,4,-4a,5,6,10b-octahydrobenzo[f]quinolin-3-one], for which the inhibition at 0.3 µM in experiment [1] was 41%; in experiment [2], 89%.

For `COc1ccc(Sc2ccc3c(c2)CC[C@H]2N(C)C(=O)CC[C@]32C)cc1` [Example 105, (+)-(4aR)-(10bR)-4,10b-dimethyl-8-(4-methoxyphenylthio)-1,2,3,4,-4a,5,6,10b-octahydrobenzo[f]quinolin-3-one], the inhibition at 0.3 µM in experiment [1] came to 33%; in experiment [2], 92%.

In the case of `CN1C(=O)CC[C@]2(C)c3ccc(Sc4cnc5ccccc5c4)cc3CC[C@@H]12` [Example 106, (4aR)-(10bR)-4,10b-dimethyl-8-(3-quinolinylthio)-1,2,3,4,4a,5,6,10b-octahydrobenzo[f]quinolin-3-one], the values for the inhibition at 0.3 µM in experiment [1] and in experiment [2] were 39% and 73%, respectively.

For `CN1C(=O)CC[C@]2(C)c3ccc(Sc4ccc5ccccc5n4)cc3CC[C@@H]12` [Example 107, (+)-(4aR)-(10bR)-4,10b-dimethyl-8-(2-quinolinylthio)-1,2,3,4,-4a,5,6,10b-octahydrobenzo[f]quinolin-3-one], the inhibition at 0.3 µM in experiment [1] was determined as 83%; in experiment [2], 80%.

On to `CN1C(=O)CC[C@]2(C)c3ccc(Sc4ccccc4F)cc3CC[C@@H]12` [Example 108, (+)-(4aR)-(10bR)-4,10b-dimethyl-8-(2-fluorophenylthio)-1,2,3,4,-4a,5,6,10b-octahydrobenzo[f]quinolin-3-one], for which the inhibition at 0.3 µM in experiment [1] is 29%; in experiment [2], 100%.

On to `CN1C(=O)CC[C@]2(C)c3ccc(Sc4cccc(F)c4)cc3CC[C@@H]12` [Example 109, (+)-(4aR)-(10bR)-4,10b-dimethyl-8-(3-fluorophenylthio)-1,2,3,4,4a,5,6,10b-octahydrobenzo[f]quinolin-3-one], for which the inhibition at 0.3 µM turned out to be 25% in experiment [1] and 97% in experiment [2].

For the compound `CN1C(=O)CC[C@]2(C)c3ccc(Sc4cccc5cccnc45)cc3CC[C@@H]12` [Example 110, (4aR)-(10bR)-4,10b-dimethyl-8-(8-quinolinylthio)-1,2,3,4,4a,5,6,10b-octahydrobenzo[f]quinolin-3-one], the inhibition at 0.3 µM in experiment [1] is 73%; in experiment [2], 97%.

As for `CN1C(=O)CC[C@]2(C)c3ccc(Sc4ccccn4)cc3CC[C@@H]12` [Example 111, (+)-(4aR)-(10bR)-4,10b-dimethyl-8-(2-pyridinylthio)-1,2,3,4,-4a,5,6,10b-octahydrobenzo[f]quinolin-3-one], the inhibition at 0.3 µM in experiment [1] stood at 38%; in experiment [2], 44%.

With `CN1C(=O)CC[C@]2(C)c3ccc(Sc4nc5ccccc5s4)cc3CC[C@@H]12` [Example 112, (4aR)-(10bR)-4,10b-dimethyl-8-(2-benzothiazolylthio)-1,2,3,4,4a,5,6,10b-octahydrobenzo[f]quinolin-3-one], in experiment [1], the “percent inhibition of Type II AR” value was determined as 92% and the inhibition at 0.3 µM was found to be 90%. Also, the inhibition at 0.3 µM in experiment [2] turned out to be 64%.

These data come from patent publication US5622962A, “5α-reductase inhibitors” (priority 1995, dated 1997).
